# From US20210379046A1, “Methods of Treating Diseases Using Kinase Modulators” (Memorial Sloan Kettering Cancer Center, priority 2018, published 2021)
# Entries after “also recorded” stand apart in the source; their conditions may differ.
# Tests used:
# Assay type in all cases: cell-based, human
# pERK in TPC1 cells = test: Western blot of pERK in TPC1 cells; settings: TPC1, 24 hrs
# Method: Cells were seeded in a 60 mm dish or 6 well plates. After the appropriate time point, cells were harvested and lysed and protein was quantified by a Lowry assay (Bio-Rad DC Protein Assay; #5000116). Protein levels were normalized and run on SDS PAGE gels (Bio-Rad). Protein was transferred to a nitrocellulose membrane using semi-dry transfer. Membrane was blocked and incubated with respective antibodies. When needed, secondary antibodies with HRP were incubated for 1 hr. Enhanced chemiluminescent substrate for HRP enzymes was used to image protein levels (Thermo-Fischer; #34095).
# Cells were seeded in a 60 mm dish or 6 well plates. After the appropriate time point, cells were harvested, lysed in RIPA buffer (Thermo Instruments) and protein concentration was quantified by a Lowry assay (using the Bio-Rad DC Protein Assay; #5000116 on a Spectramax device from Molecular Devices). Protein loading levels were equalized per lane and separated on SDS gels (Bio-Rad). Protein was transferred to a nitrocellulose membrance using semi-dry transfer (BioRad). Membranes were blocked with Omniblock (American Bio) and incubated with respected antibodies. When needed, secondary antibodies with HRP were incubated for 1 hr. Enhanced chemiluminescent substrate for HRP enzymes was used to image protein levels (Thermo-Fischer; #34095) on a ChemiDoc MP imager with Soft Max Pro software (Biorad).
# TPC1 cells [1] = test: Mass spectrometry of eluted HLA class I presented peptides, TPC1 cells
# Method: After 72 hrs, cells were harvested, washed, lysed. The lysate was run through an activated Sepharose-CNBr column coupled to the W6/32 antibody to bind HLA-A,B,C from the cell. The peptides bound by those HLAs and captured on the column were then eluted and mass spectrometry was run on those peptides.
# Immunopurification affinity columns were prepared as described previously (Bassani-Sternberg et al., 2015, Mol Cell Proteomics 14(3):658-673). In brief, 40 mg of Cyanogen bromide-activated-Sepharose® 4B (Sigma-Aldrich, Cat #C9142) was activated with 1 mM hydrochloric acid (Sigma-Aldrich, Cat #320331) for 30 min. Subsequently, 0.5 mg of W6/32 antibody (BioXCell, BE0079; RRID: AB 1107730) was coupled to sepharose in presence of binding buffer (150 mM sodium chloride, 50 mM sodium bicarbonate, pH 8.3; sodium chloride: Sigma-Aldrich, Cat #S9888, sodium bicarbonate: Sigma-Aldrich, Cat #56014) for at least 2 hours at room temperature. Sepharose was blocked for 1 h with glycine (Sigma-Aldrich, Cat #410225). Columns were equilibrated with PBS for 10 min. […]. Afterwards, cells were lysed in 1 ml 1% CHAPS (Sigma-Aldrich, Cat #C3023) in PBS, supplemented with 1 tablet of protease inhibitors (cOmplete, Cat #11836145001) for 1 hour at 4° C. This lysate was spun down for 1 hour at 20,000 g at 4° C. Supernatant was run over the affinity column through peristaltic pumps at 1 ml/min overnight at 4° C. Affinity columns were washed with PBS for 15 min, run dry, and HLA complexes subsequently eluted three times with 200 μl 1% trifluoracetic acid (TFA, Sigma/Aldrich, Cat #02031). For separation of HLA ligands from their HLA complexes tC18 columns (Sep-Pak tC18 1 cc VacCartridge, 100 mg Sorbent per Cartridge, 37-55 μm Particle Size, Waters, Cat #WAT036820) were prewashed with 80% acetonitrile (ACN, Sigma-Aldrich, Cat #34998) in 0.1% TFA and equilibrated with two washes of 0.1% TFA. Samples were loaded, washed again with 0.1% TFA and eluted in 400 μl 30% ACN in 0.1% TFA. Sample volume was reduced by vacuum centrifugation for mass spectrometry analysis.
# Samples were analyzed by a high resolution/high accuracy LC-MS/MS (Lumos Fusion, Thermo Fisher). Peptides were desalted using ZipTips (Sigma Millipore, Cat. #ZTC18S008) according to manufactures instructions and concentrated using vacuum centrifugation prior to being separated using direct loading onto a packedin-emitter C18 column (75 um ID/12 cm, 3 μm particles, Nikkyo Technos Co., Ltd. Japan). The gradient was delivered at 300 nl/min increasing linear from 2% Buffer B (0.1% formic acid in 80% acetonitrile)/98% Buffer A (0.1% formic acid) to 30% Buffer B/70% Buffer A, over 70 minutes. MS and MS/MS were operated at resolutions of 60,000 and 30,000, respectively. Only charge states 1, 2 and 3 were allowed. 1.6 Th was chosen as the isolation window and the collision energy was set at 30%. For MS/MS, the maximum injection time was 100 ms with an AGC of 50,000.
# Mass spectrometry data was processed using Byonic software (version 2.7.84, Protein Metrics, PaloAlto, Calif.) through a custom-built computer server equipped with 4 Intel Xeon E5-4620 8-core CPUs operating at 2.2 GHz, and 512 GB physical memory (Exxact Corporation, Freemont, Calif.). Mass accuracy for MS1 was set to 10 ppm and to 20 ppm for MS2, respectively. Digestion specificity was defined as unspecific and only precursors with charges 1, 2, and 3 and up to 2 kDa were allowed. Protein FDR was disabled to allow complete assessment of potential peptide identifications. Oxidization of methionine, N-terminal acetylation, phosphorylation of serine, threonine and tyrosine were set as variable modifications for all samples. All samples were searched against the UniProt Human Reviewed Database (20,349 entries, uniprot.org, downloaded June 2017). […]
# TPC1 cells [2] = test: Luminex cytokine secretion, TPC1 cells; settings: TPC1, 10 nm AST487
# Method: Supernatant media were harvested after treatment and analyzed by the Luminex device (Luminex Corporation, Austin, Tex.) for relevant cytokine secretion. […] On the left side of each panel is data after 24 hours. On the right side of each panel is data after 48 hours. […] IFNγ detected in the Luminex assay (50-70 ng/ml) is from the added IFNγ at 100 ng/ml at time zero. Therefore, the increase in HLA after inhibitor treatment in these cell lines is not due to indirect activation of the JAK/STAT pathway via autocrine cytokine signaling. The data points shown in this figure are in pairs for each condition. The data point pairs for each time point are, from left to right: DMSO, Rux, Alec, IFNg, and IFNg+Rux.
# LC-2/ad cells = test: Flow cytometry of cell surface HLA on LC-2/ad cells; settings: 72 hrs
# Method: If adherent cells, they were seeded one day before treatment.
structure (smiles),measurement,setting,value
CCN1CCN(Cc2ccc(NC(=O)Nc3ccc(Oc4cc(NC)ncn4)cc3)cc2C(F)(F)F)CC1 [AST487],pERK levels,pERK in TPC1 cells,Inhibition of pERK was seen even at concentrations as low as 10 nM; also recorded: Phospho-ERK levels decreased
same,runs TEIPP peptide was found in (n = 3),TPC1 cells [1]; ALFSFVTAL (SEQ ID NO: 11),0
same,runs TEIPP peptide was found in (n = 3),TPC1 cells [1]; FLGPWPAAS (SEQ ID NO: 12),1
same,runs TEIPP peptide was found in (n = 3),TPC1 cells [1]; FLSELQYYL (SEQ ID NO: 13),0
same,runs TEIPP peptide was found in (n = 3),TPC1 cells [1]; FLYPFLSHL (SEQ ID NO: 14),0
same,runs TEIPP peptide was found in (n = 3),TPC1 cells [1]; ILEYLTAEV (SEQ ID NO: 15),0
same,runs TEIPP peptide was found in (n = 3),TPC1 cells [1]; LLALAAGLAV (SEQ ID NO: 16),0
same,runs TEIPP peptide was found in (n = 3),TPC1 cells [1]; LLLDVPTAAV (SEQ ID NO: 17),0
same,runs TEIPP peptide was found in (n = 3),TPC1 cells [1]; LLLSAEPVPA (SEQ ID NO: 18),0
same,runs TEIPP peptide was found in (n = 3),TPC1 cells [1]; LLWGRQLFA (SEQ ID NO: 19),0
same,runs TEIPP peptide was found in (n = 3),TPC1 cells [1]; LSEKLERI (SEQ ID NO: 20),0
same,runs TEIPP peptide was found in (n = 3),TPC1 cells [1]; LTLLGTLWGA (SEQ ID NO: 21),0
same,runs TEIPP peptide was found in (n = 3),TPC1 cells [1]; SVLWLGALGL (SEQ ID NO: 22),0
same,runs TEIPP peptide was found in (n = 3),TPC1 cells [1]; TLLGASLPA (SEQ ID NO: 23),0
same,new peptides (only peptides found in all three runs counted),"TPC1 cells [1]; TPC1, 10 nM AST487 or 100 nM cabozantinib",458
same,unique ligands presented,"TPC1 cells [1]; TPC1, 10 nM AST487 or 100 nM cabozantinib, three runs pooled, DMSO 4211",5274
same,increase in unique peptides vs DMSO,"TPC1 cells [1]; TPC1, three runs pooled",25%
same,unique HLA ligands detected in all 3 runs,"TPC1 cells [1]; TPC1, DMSO 195",585
same,runs TEIPP peptide was found in (n = 3),TPC1 cells [1]; VIIKPLVWV (SEQ ID NO: 24),0
same,runs TEIPP peptide was found in (n = 3),TPC1 cells [1]; VLAVFIKAV (SEQ ID NO: 25),0
same,runs TEIPP peptide was found in (n = 3),TPC1 cells [1]; VLLDHLSLA (SEQ ID NO: 26),0
same,"IFNα, IFNγ, IL4, IL6 and TNFα secretion",TPC1 cells [2],"had no effect on IFNα, IFNγ, IL4, IL6 or TNFα secretion; also recorded: had no effect on IFNα, IFNγ, IL4, IL6 and TNFα secretion"
same,surface HLA,LC-2/ad cells,only small increases were seen; also recorded: increases in surface HLA
